# Results reported in US6541513B2, “Carbamate compounds for use in preventing or treating psychotic disorders” (Ortho-McNeil Pharmaceutical, Inc., priority 2001, dated 2003).
# How the values were obtained:
# [1] = tested on: DOI-induced headshakes in male NIH Swiss mice; experiment: DOI-Induced Headshake Model; type: in vivo; conditions: for % Inhibition (% Inh.) of DOI-induced headshakes: 45 min before DOI 5 mg/kg ip, percent suppression compared to vehicle group; for maximal suppression of DOI-induced headshakes: at the 100 mg/kg dose, oral, DOI 5 mg/kg ip
# Protocol: DOI-Induced Headshake Model
# The administration of DOI to rodents has been used as a model for assessing potential efficacy of an atypical antipsychotic in treating psychosis and schizophrenia in certain patient populations with direct or indirect defects in the serotonin system.
# Male NIH Swiss mice weighing 18-21 grams at the time of purchase were obtained from Harlan Sprague Dawley, Inc. (Prattville, Ala.). They were individually housed in wire-mesh cages at an ambient temperature of 21 to 23° C. with an automated 12/12 hour light/dark cycle. All […] had free access to 5001 Rodent Chow (Purina Mills, Brentwood, Mo.) and water except during experimental sessions. The principles of laboratory animal care (NIH publication No. 85-23, revised 1985) were followed.
# DOI (purchased from Sigma, St. Louis, Mo.) was dissolved in saline, neutralized to pH ˜7.4 and injected ip in a volume of 10 ml/kg body weight. Injection solution was freshly prepared 30-45 minutes before each experiment. Methylcellulose (0.5%, Sigma) was used as oral dosing vehicle. All experiments were performed between 10 am and 4 pm during the day. The mice were fasted the evening before the experiment.
# An enantiomer of Formula (Ib), Formula (IIb) or vehicle was orally administered at various concentrations ranging from 10 μg to 100 mg/kg. The animals were then injected with either saline or DOI (ip, 5 mg/kg) 45 minutes after the administration of either vehicle or an enantiomer of Formula (Ib) or Formula (IIb). Immediately upon DOI administration, the mice were placed in isolated observation cylinders made of a clear polycarbonate (27 cm in diameter and 55 cm deep). The number of randomized headshakes (or twitches) was recorded by an experienced observer using a hand held mechanical counter. Headshake responses were counted in consecutive 10-min periods.
# DOI-Induced Headshake Model Analysis
# All data are expressed as the mean ±SEM. The average of the headshakes in the vehicle group was expressed as 100%. The DOI-induced headshakes in groups treated with an enantiomer of Formula (Ib) and Formula (IIb) were expressed as percent suppression compared to the vehicle group. Statistical analysis for significant differences was done with the Student t test.
# [2] = tested on: PPI-disruptive effects of PCP in Sprague-Dawley-derived male rats; experiment: Pre-Pulse Inhibition Model (PCP-disrupted PPI); type: in vivo
# Source text: Pre-Pulse Inhibition Model
# The restorative effect of an enantiomer of Formula (Ib) on Pre-Pulse Inhibition (PPI) was compared to the disruptive PPI effect of phencyclidine (PCP). PCP is a NMDA antagonist having a wide range of psychotominetic effects in humans. The PPI disruption caused by PCP can be restored by some atypical antipsychotics, such as clozapine, olanzapine, and quetiapine.
# Sprague-Dawley-derived male rats were housed in groups of two or three and maintained in a temperature-controlled environment on a 12 h:12 h light cycle. Except during behavioral testing, animals were given free access to food and water. Animals were handled daily for several days to desensitize them to handling stress before behavioral analysis.
# An SR-LAB Startle System was used to control auditory stimuli and background noise level and to monitor startle response (±one msec). The average amplitude of the response was the main dependent variable used. Animals (n=20) were grouped according to a baseline mean PPI determined in a brief matching session. Baseline mean PPI testing consisted of 12 noise bursts at 118 dB[A] over a 40 msec time period followed by 3 noise bursts at 12 dB[A] over a 40 msec time period two days before testing with drug. […]
# Data were collected online simultaneously from multiple startle chambers and analyzed using the Statview 5.0 statistical package.
SMILES,% Inhibition (% Inh.) of DOI-induced headshakes ([1]; 0.01 mg/Kg oral),% Inhibition (% Inh.) of DOI-induced headshakes ([1]; 0.1 mg/Kg oral),% Inhibition (% Inh.) of DOI-induced headshakes ([1]; 1 mg/Kg oral),% Inhibition (% Inh.) of DOI-induced headshakes ([1]; 10 mg/Kg oral),% Inhibition (% Inh.) of DOI-induced headshakes ([1]; 30 mg/Kg oral),% Inhibition (% Inh.) of DOI-induced headshakes ([1]; 100 mg/Kg oral),maximal suppression of DOI-induced headshakes [1],"dose-dependent reduction in startle magnitude ([2]; 5, 15 and 45 mg/kg p.o.)","block of the PPI-disruptive effects of PCP ([2]; acute treatment 5, 15 and 45 mg/kg p.o., 110 min before PCP 1.5 mg/kg s.c.)"
NC(=O)OC[C@H](OC(N)=O)c1ccccc1Cl [Formula (IIb)],1%,11%,4%,41%,36%,43%,43%,,
NC(=O)OC[C@@H](O)c1ccccc1Cl [Formula (Ib)],11%,20%,41%,63%,58%,76%,76%,lacked an orderly dose-dependent reduction in startle magnitude,failed to significantly block the PPI-disruptive effects of PCP
